# Source: patent publication US20090305960A1, “Melanocortin Receptor-Specific Peptides for Treatment of Obesity / 669” (Palatin Technologies, Inc, priority 2008, published 2009)
# Where a SMILES comes first, the peptide text is derived from it. Bridges are numbered along the chain shown (N, C = ends). [ ]: non-standard residue; d: D form. The star is where a group is joined. Orn = NCCC[C@H](N)C(=O)O; Bn = c1ccc(C*)cc1
# Key:
# [1] = Induction of penile erection in male rats; format: in vivo, rat; settings: IV
# Method: The ability of peptides of the present invention to induce penile erection (PE) in male rats were evaluated with selected peptides. Male Sprague-Dawley rats weighing 250-300 g were kept on a 12 hour on/off light cycle with food and water ad libitum. All behavioral studies were performed between 9 a.m. and 4 p.m. Groups of 6-8 rats were administered peptides at a variety of doses via an IV route. Immediately after treatment, rats were placed into individual polystyrene cages (27 cm long, 16 cm wide, and 25 cm high) for behavioral observation, typically by remote video monitoring. Rats are observed for one hour, and the number of yawns, grooming bouts and PEs are recorded in 10-minute bins.
# [2] = Food intake and body weight change in rats; format: in vivo, rat; settings: for decrease in food consumption compared to control: rats
# Method: Change in food intake and body weight was evaluated for selected peptides administered by intravenous (IV) or subcutaneous injection routes. Male Sprague-Dawley rats were obtained from Hilltop Lab Animals, Inc. (Scottsdale, Pa.) or other vendors. Animals were individually housed in conventional polystyrene hanging cages and maintained on a controlled 12 hour on/off light cycle. Water and pelleted food was provided ad libitum. The rats were dosed IV with vehicle or selected peptides (0.3 to 1.0 mg/kg), or dosed subcutaneously with vehicle or selected peptides (doses up to 30 mg/kg). The changes in body weight and food intake for the 24 hour period after dosing was determined. The changes in body weight and food intake for the 48 hour and 72 hour periods after dosing can also be measured to determine reversal of changes in body weight and food intake effects back to baseline levels.
# [3] = target: T1, hMC1-R (Homo sapiens, UniProt Q01726); assay: Competitive binding assay, MC1-R; settings: competitive studies using Eu-NDP-α-MSH / NDP-α-MSH
# T1 construct: expressed in transfected cells; host or cells: HEK-293 (membrane homogenates)
# Method: Competitive inhibition binding assays were performed using membrane homogenates prepared from HEK-293 cells that express recombinant hMC1-R, hMC3-R, hMC4-R, or hMC5-R. In the examples that follow, all MC1-R, MC3-R, MC4-R and MC5-R values are for human recombinant receptors. Assays were performed in 96 well GF/B Millipore multiscreen filtration plates (MAFB NOB10) pre-coated with 0.5% bovine serum albumin (Fraction V). […] 35 μL of scintillation cocktail was added to each well and the plates counted on a Microbeta counter for 1 minute per well. […] Maximal specific binding (100%) was defined as the difference in radioactivity (cpm) bound to cell membranes in the absence and presence of 1 μM NDP-α-MSH. […] Ki values for test peptides of the present invention were determined using Graph-Pad Prism® curve-fitting software.
# Alternatively, a competitive inhibition binding assay was performed employing Eu-NDP-α-MSH (PerkinElmer Life Sciences catalog No. AD0225) with determination by time-resolved fluorometry (TRF) of the lanthanide chelate. […] The plates were incubated on a shaker for 15 minutes and read at 340 nm excitation and 615 nm emission wavelengths. […] Ki values were determined by curve-fitting with Graph-Pad Prism® software using a one-site fixed-slope competition binding model.
# [4] = target: T2, hMC4-R (Homo sapiens, UniProt P32245); assay: Competitive binding assay using Eu-NDP-α-MSH, MC4-R
# T2 construct: expressed in transfected cells; host or cells: HEK-293 (membrane homogenates)
# Method: Competitive inhibition binding assays were performed using membrane homogenates prepared from HEK-293 cells that express recombinant hMC1-R, hMC3-R, hMC4-R, or hMC5-R. In the examples that follow, all MC1-R, MC3-R, MC4-R and MC5-R values are for human recombinant receptors. Assays were performed in 96 well GF/B Millipore multiscreen filtration plates (MAFB NOB10) pre-coated with 0.5% bovine serum albumin (Fraction V). Membrane homogenates were incubated with 0.1 nM [1^125]-NDP-α-MSH (Perkin Elmer) and increasing concentrations of test peptides of the present invention in buffer containing 25 mM HEPES buffer (pH 7.5) with 100 mM NaCl, 2 mM CaCl2, 2 mM MgCl2, 0.3 mM 1,10-phenanthroline, and 0.1% bovine serum albumin. After incubation for 90 minutes at 37° C., the assay mixture was filtered and the membranes washed with 1 mL of cold 1×PBS wash buffer per well. 35 μL of scintillation cocktail was added to each well and the plates counted on a Microbeta counter for 1 minute per well. Non-specific binding was measured by inhibition of binding of [I^125]-NDP-α-MSH in the presence of 1 μM NDP-α-MSH. Maximal specific binding (100%) was defined as the difference in radioactivity (cpm) bound to cell membranes in the absence and presence of 1 μM NDP-α-MSH. Radioactivity (cpm) obtained in the presence of test compounds was normalized with respect to 100% specific binding to determine the percent inhibition of [I^125]-NDP-α-MSH binding. Each assay was conducted in duplicate and actual mean values are described, with results less than 0% reported as 0%. Ki values for test peptides of the present invention were determined using Graph-Pad Prism® curve-fitting software.
# Alternatively, a competitive inhibition binding assay was performed employing Eu-NDP-α-MSH (PerkinElmer Life Sciences catalog No. AD0225) with determination by time-resolved fluorometry (TRF) of the lanthanide chelate. In comparison studies with [I^125]-NDP-α-MSH, the same values, within experimental error ranges, were obtained for percent inhibition and Ki. Typically competition experiments to determine Ki values were conducted by incubating membrane homogenates prepared from HEK-293 cells that express recombinant hMC4-R with 9 different concentrations of test compounds of interest and 1 nM of Eu-NDP-α-MSH in a solution containing 25 mM HEPES buffer with 100 mM NaCl, 2 mM CaCl2, 2 mM MgCl2, 0.1% BSA, and 0.3 mM 1,10-phenanthroline. After incubation for 90 minutes at 37° C., the reaction was stopped by filtration over AcroWell 96-well filter plates (Pall Life Sciences). The filter plates were washed 4 times with 200 μL of ice-cold phosphate-buffered saline. DELFIA Enhancement solution (PerkinElmer Life Sciences) was added to each well. The plates were incubated on a shaker for 15 minutes and read at 340 nm excitation and 615 nm emission wavelengths. Each assay was conducted in duplicate and mean values were utilized. Ki values were determined by curve-fitting with Graph-Pad Prism® software using a one-site fixed-slope competition binding model.
# [5] = rat feeding studies, overall finding in words
# T2 sequence (P32245 whole entry): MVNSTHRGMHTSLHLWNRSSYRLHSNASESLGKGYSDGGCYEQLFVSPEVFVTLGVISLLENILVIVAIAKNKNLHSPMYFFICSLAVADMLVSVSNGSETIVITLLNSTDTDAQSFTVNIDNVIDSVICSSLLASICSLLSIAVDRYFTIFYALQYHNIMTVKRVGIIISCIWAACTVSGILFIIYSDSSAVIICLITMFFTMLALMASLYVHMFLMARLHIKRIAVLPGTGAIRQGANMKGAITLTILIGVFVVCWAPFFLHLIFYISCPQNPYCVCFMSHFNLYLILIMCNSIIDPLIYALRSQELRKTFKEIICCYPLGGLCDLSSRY
# T1 sequence (Q01726 whole entry): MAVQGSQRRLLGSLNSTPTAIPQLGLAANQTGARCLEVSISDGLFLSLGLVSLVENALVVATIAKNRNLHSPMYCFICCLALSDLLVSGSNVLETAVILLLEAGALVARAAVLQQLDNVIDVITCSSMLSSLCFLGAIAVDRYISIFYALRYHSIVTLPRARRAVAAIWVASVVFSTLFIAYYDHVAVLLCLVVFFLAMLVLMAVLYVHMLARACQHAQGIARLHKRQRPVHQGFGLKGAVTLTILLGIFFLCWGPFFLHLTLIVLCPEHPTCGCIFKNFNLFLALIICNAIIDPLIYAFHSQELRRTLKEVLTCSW
structure (smiles),measurement,setting,value
"CC(=O)N[C@@H](CCCNC(=N)N)C(=O)N[C@H]1CCCNC(=O)CC[C@@H](C(=O)O)NC(=O)[C@H](Cc2c[nH]c3ccccc23)NC(=O)[C@H](CCCNC(=N)N)NC(=O)[C@@H](Cc2ccccc2)NC(=O)[C@H](COCc2ccccc2)NC1=O [Compound 7, Ac-Arg-cyclo(Orn-Ser(Bzl)-D-Phe-Arg-Trp-Glu)-OH] (Ac-R[Orn]S(Bn)[dF]RWE-OH; lactam 2-7)",average spontaneous erections per rat in one hour,[1]; 1 mg/kg,1.429±0.69 spontaneous erections per rat in one hour
same,increase in observed spontaneous erections,[1]; in words,not found to result in a statistically significant increase
same,food intake,[2]; [5],reduce food intake
same,rate of change in body weight,[2]; [5],decrease the rate of change in body weight
same,decrease in food consumption compared to control,"[2]; 0.3 mg/kg, 0-2 hour period",statistically significant
same,decrease in food consumption compared to control,"[2]; 0.3 mg/kg, 0-4 hour period",statistically significant
same,decrease in food consumption compared to control,"[2]; 0.3 mg/kg, 0-20 hour period",statistically significant
same,decrease in food consumption compared to control,"[2]; 1 mg/kg, 0-4 hour period",statistically significant
same,decrease in food consumption compared to control,"[2]; 1 mg/kg, 0-20 hour period",statistically significant
same,decrease in food consumption compared to control,"[2]; 1 mg/kg, 4-20 hour period",statistically significant
same,Ki,[3],2.04 µM
same,Ki,"[4]; competitive studies using Eu-NDP-α-MSH / NDP-α-MSH, average of several studies, read-out: Ki value at MC4-R",0.009 µM
same,"selectivity for MC4-R (binding against MC1-R, MC3-R and MC4-R)",[4]; in words,highly selective for MC4-R
